Laboratory results reported in US11547957B2, “Method of maintaining narrow residence time distributions in continuous flow systems” (EMD Millipore Corporation, priority 2017, dated 2023).

Tested on: Phi6 bacteriophage virus
Experiment: Static detergent-based virus inactivation, infectivity by plaque assay
Type: cell-based
Conditions: mAb 15 mg/mL, 22-25° C.; for Time to Complete Inactivation: Phi6
Method: The purpose of this study was to examine detergent-based virus inactivation kinetics. In this representative experiment, two different concentrations (0.1% and 1.0% v/v) of a detergent, Triton X-100 were used to inactivate a bacteriophage virus, Phi6. The objective was to determine the exposure time required for complete inactivation.
A monoclonal antibody was purified by standard Protein A chromatography and prepared at a concentration of 15 mg/mL. The virus spike was added and vortexed to ensure a well-mixed system. The Phi6 target spike level was 1×10^8 pfu/mL. Detergent was added to reach the desired concentrations of 0.1% and 1.0% v/v. At various time points, a sample was removed and quenched by adding it to buffer at a 1:1000 dilution ratio. The tubes were vortexed after the detergent addition. These experiments were carried out at room temperature, 22-25° C. Control samples at the initial and final time points were also analyzed. The control samples were diluted similarly to the actual samples using the background buffer.

With Triton X-100 the “Time to Complete Inactivation” value (0.1% v/v Triton X-100) was no more than 1 min, the “Time to Complete Inactivation” value (0.1% v/v Triton X-100, listed as Triton X100) was no more than 1 min and the “Phi6 LRV” value (0.1% v/v Triton X-100, inactivation time 1 min) was no less than 5.2. For the same substance, the “Phi6 LRV” value (0.1% v/v Triton X-100, inactivation time 2 min) was no less than 5.2, the “Phi6 LRV” value (0.1% v/v Triton X-100, inactivation time 3 min) was no less than 5.2 and the “Phi6 LRV” value (0.1% v/v Triton X-100, inactivation time 4 min) was no less than 5.2. The “Phi6 LRV” value (0.1% v/v Triton X-100, inactivation time 5 min) was no less than 5.2, the “Phi6 LRV” value (0.1% v/v Triton X-100, inactivation time 15 min) was no less than 5.2 and the “Phi6 LRV” value (0.1% v/v Triton X-100, inactivation time 30 min) was no less than 5.2. The “Time to Complete Inactivation” value (1.0% v/v Triton X-100) was no more than 1 min, the “Time to Complete Inactivation” value (1.0% v/v Triton X-100, listed as Triton X100) was no more than 1 min and the “Phi6 LRV” value (1.0% v/v Triton X-100, inactivation time 1 min) was no less than 6.2. For the same substance, the “Phi6 LRV” value (1.0% v/v Triton X-100, inactivation time 2 min) was no less than 6.2, the “Phi6 LRV” value (1.0% v/v Triton X-100, inactivation time 3 min) was no less than 6.2 and the “Phi6 LRV” value (1.0% v/v Triton X-100, inactivation time 4 min) was no less than 6.2. For the same substance, the “Phi6 LRV” value (1.0% v/v Triton X-100, inactivation time 5 min) was no less than 6.2, the “Phi6 LRV” value (1.0% v/v Triton X-100, inactivation time 15 min) was no less than 6.2 and the “Phi6 LRV” value (1.0% v/v Triton X-100, inactivation time 30 min) was no less than 6.2.
